According to patent publication US20070071688A1, “Pharmaceutical compositions for transdermal administration of anti-inflammatory agents” (sanofi-aventis, priority 2000, published 2007):
In brackets after ≈: the same amount, converted by molar mass.

Legend:
[1] = Saturation solubility of ibuprofen in components of the transdermal formulation (without matrix); assay type: physicochemical; conditions: 30° C.
Protocol: Comparative tests were carried out in order to determine the saturation solubility of ibuprofen in various components of the transdermal formulation of the invention in the absence of matrix, namely water, 2-ethylhexyl 2-ethylhexanoate as transcutaneous absorption promoter, referred to hereinbelow as “promoter”, and isopropanol as nonaqueous solvent.
These various components were used alone or as homogeneous mixtures forming a clear solution, and the solubility measurements were performed at 30° C., after 24 hours of magnetic stirring and after filtration through a 0.22 μm filter.

[2] = Preliminary trials on solubility of ibuprofen in various solvents or components; assay type: physicochemical
Protocol: In the context of the present invention, preliminary trials were carried out directed essentially toward studying the solubility of ibuprofen in various solvents or components.

Ibuprofen saturating concentration ([1]; isopropanol 68.21 / promoter 31.79 % m/m, no water, 24 hours): 403 mg/mL | Ibuprofen saturating concentration ([1]; isopropanol 89.31 / promoter 10.69 % m/m, no water, 24 hours): 424 mg/mL | Ibuprofen saturating concentration ([1]; isopropanol 100% m/m, 24 hours magnetic stirring, 0.22 μm filtration): 441 mg/mL | Ibuprofen saturating concentration ([1]; promoter (2-ethylhexyl 2-ethylhexanoate) 100% m/m, 24 hours magnetic stirring, 0.22 μm filtration): 192 mg/mL | solubility thermodynamic at 24 h ([1]; thermodynamic from solid, water 100% m/m, 24 hours magnetic stirring, 0.22 μm filtration, read-out: Ibuprofen saturating concentration): 69 µg/mL (≈ 334 µM) | Ibuprofen saturating concentration ([1]; water 4.33 / isopropanol 85 / promoter 10.67 % m/m, 24 hours): 451 mg/mL | Ibuprofen saturating concentration ([1]; water 4.38 / isopropanol 68.16 / promoter 27.46 % m/m, 24 hours): 431 mg/mL | Ibuprofen saturating concentration ([1]; water 8.54 / isopropanol 68.23 / promoter 23.23 % m/m, 24 hours): 436 mg/mL | Ibuprofen saturating concentration ([1]; water 8.59 / isopropanol 80.7 / promoter 10.69 % m/m, 24 hours): 448 mg/mL | solubility in water [2]: entirely water-insoluble | solubility in fatty acid ester/alcohol mixtures ([2]; 2-ethylhexyl 2-ethylhexanoate/ethanol or isopropanol mixtures): soluble
SMILES: CC(C)Cc1ccc(C(C)C(=O)O)cc1 (centres unmarked) [Ibuprofen]
